Results as given in paper PMC3917258, “6-Bromoisatin Found in Muricid Mollusc Extracts Inhibits Colon Cancer Cell Proliferation and Induces Apoptosis, Preventing Early Stage Tumor Formation in a Colorectal Cancer Rodent Model” (Marine Drugs, 2013).

Legend:
[1] = parameters: method as in PMID 20150770; details: low pH, simulated digestive fluid; cited from earlier work
Blood hematology = format: in vivo, mice (C57BL/6J)
Method: (§1) To detect the early stage prevention of colon cancer, an established AARGC rodent model with injection of the carcinogen AOM was used. Synthetic 6-bromoisatin at 3 different dosages (0.025, 0.05 and 0.1 mg/g body weight) was administered to mice by daily oral gavage in 100 µL sunflower oil, containing 0.02% Vitamin E, for two weeks. The control group was gavaged with sunflower oil (containing 0.02% Vitamin E) only. After two weeks, all mice were injected with a single intraperitoneal (i.p.) injection of AOM at a dosage of 10 mg/kg bodyweight and euthanized 6 h later by cervical dislocation under anesthesia. […] The distal colon of each mouse was excised and fixed in 10% buffered formalin for 24 h and then embedded in paraffin for histological and immunohistological examination.
Blood samples (0.5–1 mL) were obtained from the mice under anesthesia by cardiac puncture at time of kill and transferred to Gribbles Veterinary Pathology laboratory, Adelaide within heparinized vacutainer tubes then centrifuged to separate into the cell layer for hematology analysis (Abbott Cell Dyn 3700 analyzer, North Ryde, NSW, Australia) and plasma for biochemistry analysis (Siemens Advia 1800 chemistry analyzer, Erlangen, Germany). The plasma levels of the liver enzymes AST, ALT and ALP were assessed as indicators of hepatotoxicity.

[2] = system: epithelial cells of distal colon; test: AARGC mouse model: apoptotic index; format: in vivo, mice (C57BL/6J)
Method: (§2) This experiment was conducted under Flinders animal welfare approval number 751-10. A total of 38 wild-type (C57BL/6J) male mice aged 10 weeks were obtained from the Animal Resource Centre, Perth, Western Australia. Mice were divided randomly into 4 groups (ten mice in each treatment group and 8 mice in the sunflower oil only control group) and housed in 8 cages (four to five mice per cage). The mice were given water and food (rodent chow) ad libitum and maintained at the temperature of 22 ± 2 °C and humidity of 80% ± 10% with a 12 h light/dark cycle. Mice were weighed every five days and on the day of kill, and monitored daily for signs of illness, such as weight and hair loss, diarrhea, constipation, rectal bleeding, labored breathing, lethargy, eye and nose discharge.
as §1
Distal colon segments were embedded in paraffin and sectioned at 4 µm (3–4 sections per mouse), then stained with hematoxylin, to evaluate apoptosis in epithelial cells of distal colon sections. The slides were examined under a light microscope (Olympus BH-2, Mt Waverly, VIC, Australia, 400× magnification) to identify the apoptotic cells, by characteristic morphological changes such as cell shrinkage, condensed chromatin and sharply delineated cell borders surrounded by an unstained halo [26, 49]. Twenty randomly chosen crypts were used to calculate the percent of apoptotic cells per crypt. The mean crypt column height was also determined.

[3] = General observations for signs of illness; format: in vivo, mice (C57BL/6J); details: mice, 0.025-0.1 mg/g daily oral gavage two weeks
Method: as §2

[4] = system: caspase 3/7 activity in HT29 cells; test: Caspase-Glo 3/7 assay; format: cell-based, human; details: 12 h
Method: All media and chemicals were purchased from Sigma Aldrich (Castle Hill, NSW, Australia) unless otherwise stated. HT29 human colorectal cancer cell line (passage no. 36-42) were cultured (37 °C and 5% CO2) in Dulbecco’s Modified Eagle’s Medium (DMEM) supplemented with 4500 mg/L L-glutamine, 10% FBS, 100 U/mL Penicillin/Streptomycin and 1% Non-essential Amino Acid (100×), until the cells reached 70% confluence. The cells were harvested from flasks by trypsinization (1× Trypsin-EDTA) and were seeded (20,000 cells/well) into clear 96-well plates (Costar®, Mt Martha, VIC, Australia) for measurement of cell viability and white (opaque) 96-well plates (Interpath, Heidelberg West, VIC, Australia) for determination of apoptosis and necrosis. HT29 cells were incubated for 48 h, then the media was removed and the cells were washed with PBS. To treat the cells, synthetic 6-bromoisatin was dissolved in 100% dimethylsulphoxide (DMSO) then diluted in media and added to the cells at a range of concentrations from 0.1 to 0.01 mg/mL, in triplicate (final DMSO concentration of 1%). 1% DMSO controls were also included on each plate. Staurosporine (5 µM) for apoptosis and lysis solution (5 μL/well, Promega, Alexandria, NSW, Australia) for necrosis were added to the white plates in triplicate, as positive controls. All cells were treated for 12 h. Morphological changes in the cells were observed on an Olympus CK2 inverted optical microscope (×400 magnification) 12 h after treatment. To measure cell viability, the MTT assay was applied, which measures the reduction of MTT tetrazolium salt to formazan, as previously described. To measure necrosis and apoptosis, CytoTox-ONE Homogeneous Membrane Integrity Assay reagent (Promega) and Caspase-Glo 3/7® assay (Promega) were applied respectively, according to our previous study. These assays were all repeated in triplicate on three separate occasions (n = 3).

[5] = 0.025 mg/g, n = 6, 6 h after AOM 10 mg/kg
[6] = 0.05 mg/g, n = 6, 6 h after AOM 10 mg/kg
[7] = 0.1 mg/g, n = 8, 6 h after AOM 10 mg/kg

Structure (SMILES): O=C1Nc2cc(Br)ccc2C1=O [6-bromoisatin, 6-Bromoindole-2,3-dione]
- stability [1]: stable at low pH
- Hct (Hematocrit) (Blood hematology; [5]): 0.4 ± 0.01 L/L
- Hemoglobin (Blood hematology; [5]): 139.7 ± 5.1 g/L
- Lymphocytes (Blood hematology; [5]): 3.3 ± 1.1 ×10^9/L
- MCH (Mean Corpuscular Hemoglobin) (Blood hematology; [5]): 15.0 ± 0.0 pg
- MCHC (Mean Corpuscular Hemoglobin Concentration) (Blood hematology; [5]): 322.7 ± 1.5 g/L
- MCV (Mean Corpuscular Volume) (Blood hematology; [5]): 46.5 ± 0.8 fL
- Monocytes (Blood hematology; [5]): 0.2 ± 0.3 ×10^9/L
- Neutrophils (Blood hematology; [5]): 1.6 ± 0.8 ×10^9/L
- Red cell count (Blood hematology; [5]): 9.3 ± 0.4 ×10^12/L
- White cell count (Blood hematology; [5]): 5.2 ± 1.8 ×10^9/L
- Hct (Hematocrit) (Blood hematology; [6]): 0.4 ± 0.01 L/L
- Hemoglobin (Blood hematology; [6]): 135.0 ± 3.5 g/L
- Lymphocytes (Blood hematology; [6]): 3.4 ± 0.8 ×10^9/L
- MCH (Mean Corpuscular Hemoglobin) (Blood hematology; [6]): 15.0 ± 0.0 pg
- MCHC (Mean Corpuscular Hemoglobin Concentration) (Blood hematology; [6]): 319.0 ± 2.8 g/L
- MCV (Mean Corpuscular Volume) (Blood hematology; [6]): 46.7 ± 1.2 fL
- Monocytes (Blood hematology; [6]): 0.2 ± 0.1 ×10^9/L
- Neutrophils (Blood hematology; [6]): 2.2 ± 1.3 ×10^9/L
- Red cell count (Blood hematology; [6]): 9.1 ± 0.4 ×10^12/L
- White cell count (Blood hematology; [6]): 5.8 ± 1.5 ×10^9/L
- Hct (Hematocrit) (Blood hematology; [7]): 0.4 ± 0.02 L/L
- Hemoglobin (Blood hematology; [7]): 138.4 ± 5.7 g/L
- Lymphocytes (Blood hematology; [7]): 2.3 ± 0.9 ×10^9/L
- MCH (Mean Corpuscular Hemoglobin) (Blood hematology; [7]): 15.0 ± 0.0 pg
- MCHC (Mean Corpuscular Hemoglobin Concentration) (Blood hematology; [7]): 319.8 ± 3.0 g/L
- MCV (Mean Corpuscular Volume) (Blood hematology; [7]): 46.4 ± 0.7 fL
- Monocytes (Blood hematology; [7]): 0.1 ± 0.1 ×10^9/L
- Neutrophils (Blood hematology; [7]): 0.8 ± 0.7 ×10^9/L
- Red cell count (Blood hematology; [7]): 9.4 ± 0.5 ×10^12/L
- White cell count (Blood hematology; [7]): 3.2 ± 1.1 ×10^9/L
- increase in apoptotic index over the oil control ([2]; 0.05 mg/g daily oral gavage two weeks, distal colon, 6 h post AOM 10 mg/kg): 2.3 fold
- apoptotic index lower than the dose of 0.05 mg/g ([2]; 0.1 mg/g daily oral gavage two weeks, distal colon): 40%
- apoptotic index ([2]; 0.1 mg/g daily oral gavage two weeks, distal colon, compared with control): significantly induced apoptosis
- apoptotic index ([2]; lowest concentration (0.025 mg/g) daily oral gavage two weeks, compared to AOM injected control): not a significant difference
- diarrhea / stool consistency [3]: no diarrhea or change in stool consistency
- signs of illness [3]: did not show any signs of illness
- caspase 3/7 activity ([4]; 446 μM = 0.1 mg/mL, compared to DMSO control): minor but significant reduction
- caspase 3/7 activity ([4]; concentrations <0.1 mg/mL): did not increase caspase 3/7 activity
